Results taken from patent US12293809B2, “Workflow for generating compounds with biological activity against a specific biological target” (INSILICO MEDICINE IP LIMITED, priority 2019, dated 2025).
Like-named read-outs stand apart in the source and are kept apart here.

Tests used:
[1] = target: T1, hDDR2 (Homo sapiens, UniProt Q16832); experiment: KinaseProfiler radiometric biochemical kinase assay (Eurofins)
T1 construct: purchased Eurofins
T1 sequence (Q16832 22-855): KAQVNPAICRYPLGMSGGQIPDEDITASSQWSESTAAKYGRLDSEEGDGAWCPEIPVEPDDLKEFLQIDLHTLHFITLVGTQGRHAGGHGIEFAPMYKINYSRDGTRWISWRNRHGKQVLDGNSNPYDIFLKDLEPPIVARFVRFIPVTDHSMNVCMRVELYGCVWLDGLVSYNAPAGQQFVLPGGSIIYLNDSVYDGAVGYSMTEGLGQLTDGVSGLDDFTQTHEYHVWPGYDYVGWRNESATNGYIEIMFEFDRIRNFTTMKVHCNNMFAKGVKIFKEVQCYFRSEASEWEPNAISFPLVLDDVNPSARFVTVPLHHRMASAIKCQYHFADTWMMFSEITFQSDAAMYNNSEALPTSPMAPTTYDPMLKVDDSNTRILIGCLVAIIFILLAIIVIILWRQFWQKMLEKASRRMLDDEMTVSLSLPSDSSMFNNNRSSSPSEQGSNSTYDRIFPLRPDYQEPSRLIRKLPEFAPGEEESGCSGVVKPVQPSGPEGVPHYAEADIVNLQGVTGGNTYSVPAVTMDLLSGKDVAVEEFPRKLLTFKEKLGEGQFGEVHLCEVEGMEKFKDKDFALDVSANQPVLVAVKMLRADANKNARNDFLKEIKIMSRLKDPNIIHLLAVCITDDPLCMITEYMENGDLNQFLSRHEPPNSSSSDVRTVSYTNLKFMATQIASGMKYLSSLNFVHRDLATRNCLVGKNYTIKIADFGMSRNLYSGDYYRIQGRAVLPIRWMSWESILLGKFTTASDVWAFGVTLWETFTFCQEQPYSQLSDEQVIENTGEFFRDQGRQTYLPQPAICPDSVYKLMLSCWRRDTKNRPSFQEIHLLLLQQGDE
Experimental: The experimental procedures were performed by Eurofins. The activity of the molecules against hDDR1 and hDDR2 kinases was assessed using KinaseProfiler^67. […] The enzymatic reaction processed in the presence of Mg^2+ cations and ATP at room temperature for 40 minutes and terminated by addition of phosphoric acid. […] All the compounds were prepared in 100% DMSO. […] The biological evaluation of selectivity against non-target kinases was performed in Dundee Eurofins, using Scan Max Delta Panel [10 μM ATP] KinaseProfiler^68.

[2] = tested on: CTGF production in LX-2 cells; experiment: LX-2 fibrosis assay, TGF-β stimulated (Western blot); assay type: cell-based, human
Experimental: (§1) Collagen α1, α-SMA, CTGF and GAPDH were traced using Western blot analysis. DMSO and SB-525334 were used as negative and positive controls, respectively.
(§2) Human hepatic stellate cells LX-2 were grown in DMEM (Invitrogen, 11960) supplied with 1% MEM Non-Essential Amino Acids (Invitrogen, 11140-050), 2% fetal bovine serum (Hyclone, SV30087.03), Penicillin (100 U/mL)-streptomycin (100 μg/mL) (Millipore, TMS-AB2-C) and 2 mM L-Glutamine (Invitrogen, 25030-001). After the cells grew in 12-well plates for 24 h, the cell culture medium was changed to the same as above except using 0.4% fetal bovine serum. After 20 h growth in the reduced serum medium, the cells were treated with indicated doses of compounds for 30 minutes. Subsequently, the cells were stimulated with 4 ng/mL TGF-β (R&D Systems, 240-B-002) for 48 h. The cells were rinsed twice with DPBS before being harvested with 100 μL RIPA buffer (Sigma, R0278) supplemented with protease inhibitor cocktail (Roche, 04693132001) at 4° C. The total protein in each sample was quantified using BCA Protein Assay Kit (Pierce™, 23227) and equal amount of total protein of each sample was subject to Western blot analysis. Antibodies used were mouse anti-α-Actin (SPM332) (sc-365970), mouse anti-CTGF (E5) (sc-365970), and mouse anti-collagen al (3G3) (sc-293182), from Santa Cruz Biotechnologies; and mouse anti-GAPDH (6C5) (EMD Millipore, MAB374).

[3] = tested on: collagen α1 production in LX-2 cells; experiment: as above; assay type: cell-based, human
Experimental: as §1, §2

[4] = tested on: CTGF expression in MRC-5 cells; experiment: MRC-5 fibrosis assay, TGF-β stimulated (Western blot); assay type: cell-based
Experimental: (§3) After 20 h growth in the reduced serum medium, the cells were treated with indicated doses of compounds for 30 minutes. Subsequently, the cells were stimulated with 10 ng/mL TGF-β (R&D Systems, 240-B-002) for 48 or 72 hours.

[5] = tested on: α-actin expression in MRC-5 cells; experiment: as above; assay type: cell-based
Experimental: as §3

[6] = target: T2, CYP3A4-M (Homo sapiens, UniProt P08684); experiment: Cytochrome inhibition in HLM; assay type: in vitro ADME
T2 construct: from tissue; host or cells: human liver microsomes (HLM)
Experimental: (§4) Water used in the assay and analysis was purified by ELGA Lab purification systems. Potassium phosphate buffer (PB) in concentration of 100 mM and MgCl2 in concentration of 33 mM were used. […] Microsomes were pulled out of the −80° C. freezer to thaw on ice, labeled the date and put back to freezer immediately after using. 20 μL of the substrates solutions were added to corresponding wells. 20 μL PB were added to Blank wells. 2 μL of the test compounds and positive control working solution were added to corresponding wells. Then, HLM working solution was prepared. 158 μL of the HLM working solution was added to all wells of incubation plate. The plate was pre-warmed for about 10 min at 37° C. water bath. Then, NADPH cofactor solution was prepared. 20 μL NADPH cofactor was added to all incubation wells. The solution was mixed and incubated for 10 minutes at 37° C. water bath. At the time point, the reaction was terminated by adding 400 μL cold stop solution (200 ng/mL Tolbutamide and 200 ng/mL Labetalol in ACN). The samples were centrifuged at 4000 rpm for 20 minutes to precipitate protein. 200 μL supernatant was transferred to 100 μL HPLC water and shaken for 10 min. XL fit was used to plot the percent of vehicle control versus the test compound concentrations, and for non-linear regression analysis of the data. IC50 values were determined using 3- or 4-parameter logistic equation.

[7] = target: T3, CYP2C19 (Homo sapiens, UniProt P33261); experiment: Cytochrome inhibition in HLM; assay type: in vitro ADME
T3 construct: from tissue; host or cells: human liver microsomes (HLM)
Experimental: as §4

[8] = target: T4, CYP2C9 (Homo sapiens, UniProt P11712); experiment: Cytochrome inhibition in HLM; assay type: in vitro ADME
T4 construct: from tissue; host or cells: human liver microsomes (HLM)
Experimental: as §4

[9] = target: T5, CYP2D6 (Homo sapiens, UniProt P10635); experiment: Cytochrome inhibition in HLM; assay type: in vitro ADME
T5 construct: from tissue; host or cells: human liver microsomes (HLM)
Experimental: as §4

T3 sequence (P33261 whole entry): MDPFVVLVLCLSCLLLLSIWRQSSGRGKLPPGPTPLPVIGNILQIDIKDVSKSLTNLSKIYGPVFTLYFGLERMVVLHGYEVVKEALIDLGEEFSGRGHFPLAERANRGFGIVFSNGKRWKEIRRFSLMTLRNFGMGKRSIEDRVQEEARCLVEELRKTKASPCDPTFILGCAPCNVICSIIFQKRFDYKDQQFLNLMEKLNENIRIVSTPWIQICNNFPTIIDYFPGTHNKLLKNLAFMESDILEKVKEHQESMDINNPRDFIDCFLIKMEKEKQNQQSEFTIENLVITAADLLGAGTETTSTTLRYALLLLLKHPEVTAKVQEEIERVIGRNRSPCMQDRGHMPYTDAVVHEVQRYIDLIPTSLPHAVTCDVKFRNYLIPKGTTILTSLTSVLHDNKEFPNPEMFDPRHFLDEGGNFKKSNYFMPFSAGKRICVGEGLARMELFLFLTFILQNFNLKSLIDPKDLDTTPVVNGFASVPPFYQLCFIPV
T4 sequence (P11712 whole entry): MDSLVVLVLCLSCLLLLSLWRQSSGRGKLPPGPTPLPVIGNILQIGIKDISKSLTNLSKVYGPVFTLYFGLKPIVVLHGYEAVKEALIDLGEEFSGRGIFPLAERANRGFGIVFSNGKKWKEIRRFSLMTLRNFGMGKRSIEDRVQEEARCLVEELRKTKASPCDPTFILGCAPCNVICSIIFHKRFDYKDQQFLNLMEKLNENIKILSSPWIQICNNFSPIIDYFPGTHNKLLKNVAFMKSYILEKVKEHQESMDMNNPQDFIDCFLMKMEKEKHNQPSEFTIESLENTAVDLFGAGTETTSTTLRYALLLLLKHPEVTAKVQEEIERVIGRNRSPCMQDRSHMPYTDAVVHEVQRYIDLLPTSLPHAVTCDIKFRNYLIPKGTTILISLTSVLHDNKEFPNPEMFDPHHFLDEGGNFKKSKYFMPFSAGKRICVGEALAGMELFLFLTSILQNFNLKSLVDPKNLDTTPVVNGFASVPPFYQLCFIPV
T5 sequence (P10635 whole entry): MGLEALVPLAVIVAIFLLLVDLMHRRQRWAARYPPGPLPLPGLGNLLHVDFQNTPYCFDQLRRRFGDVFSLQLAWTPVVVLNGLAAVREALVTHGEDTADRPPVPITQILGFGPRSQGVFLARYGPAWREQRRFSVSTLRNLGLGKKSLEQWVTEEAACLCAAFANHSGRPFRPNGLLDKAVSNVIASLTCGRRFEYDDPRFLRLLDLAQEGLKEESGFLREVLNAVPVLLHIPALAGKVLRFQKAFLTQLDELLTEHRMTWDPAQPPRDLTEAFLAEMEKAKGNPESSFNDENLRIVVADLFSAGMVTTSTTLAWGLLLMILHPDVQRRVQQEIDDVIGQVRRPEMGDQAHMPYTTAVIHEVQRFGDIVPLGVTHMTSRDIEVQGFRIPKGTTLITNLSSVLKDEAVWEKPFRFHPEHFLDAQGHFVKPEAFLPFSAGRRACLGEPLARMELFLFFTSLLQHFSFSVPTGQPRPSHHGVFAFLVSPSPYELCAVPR
T2 sequence (P08684 whole entry): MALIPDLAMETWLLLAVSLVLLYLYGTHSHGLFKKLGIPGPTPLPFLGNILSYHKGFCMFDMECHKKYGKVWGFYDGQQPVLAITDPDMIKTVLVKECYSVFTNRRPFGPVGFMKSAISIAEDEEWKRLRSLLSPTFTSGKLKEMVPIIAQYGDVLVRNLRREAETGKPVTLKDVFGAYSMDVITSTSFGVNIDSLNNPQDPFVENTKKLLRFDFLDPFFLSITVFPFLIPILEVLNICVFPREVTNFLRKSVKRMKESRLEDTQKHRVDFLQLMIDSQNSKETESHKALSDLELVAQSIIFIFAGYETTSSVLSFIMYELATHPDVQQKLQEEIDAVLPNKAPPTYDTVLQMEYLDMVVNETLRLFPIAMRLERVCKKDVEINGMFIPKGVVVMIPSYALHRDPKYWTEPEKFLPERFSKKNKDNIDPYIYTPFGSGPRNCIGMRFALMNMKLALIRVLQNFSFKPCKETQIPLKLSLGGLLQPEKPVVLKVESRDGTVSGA

Structure (SMILES)	SI (selectivity index) DDR2 vs DDR1 [1]	IC50 ([1]; read-out: IC50 towards DDR2 kinase)	CTGF production prevented ([2]; 14 nM)	IC50 ([3]; LX-2 cells, read-out: IC50, collagen assay)	concentration of highest activity in CTGF assay (close to negative control) ([4]; MRC-5)	concentration of maximum inhibition of α-actin expression ([5]; MRC-5)	maximum effect on α-actin expression ([5]; at 0.37 μM)	IC50 [6]	IC50 [7]	IC50 [8]	IC50 [9]	activity towards DDR2 weaker than for DDR1 ([1]; DDR2 vs DDR1)	effect in CTGF assay ([2]; LX-2 cells)	IC50 ([3]; TGF-β stimulated LX-2 cells, normalized to GAPDH, read-out: IC50, collagen production)	effect on CTGF expression ([4]; all the concentrations used)	dose dependence of effect on α-actin expression ([5]; MRC-5)
O=C(Nc1cccc(C(=O)N2CCN(c3ccnc4[nH]ccc34)C2)c1)c1cccc(C(F)(F)F)c1 [Compound 2]	3.6	0.076 µM	43%	> 10 µM	0.041 µM	0.37 µM	1.5 fold	7.36 µM	6.56 µM	2.7 µM	6.97 µM	–	–	–	–	–
Cc1ccc2c(Nc3cccc(C(F)(F)F)c3)noc2c1C#Cc1cnc2cccnn12 [Compound 1]	–	–	–	–	–	–	–	> 50 µM	> 50 µM	> 50 µM	> 50 µM	23 times	did not show the inhibition effect	0.013 µM	no inhibition potency	robust dose-dependent effect
